Test results reported in patent US20050014762A1, “Combination” (priority 2001, published 2005).
“And” between values parts separate entries of the source, which are not always exact repeats. Identical values can stand only once. Like-named read-outs stand apart in the source and are kept apart here.

System: SRS-A-mediated bronchoconstriction after ovalbumin (OVA) challenge in guinea pigs
Experiment: SRS-A-mediated (OVA-induced) bronchoconstriction in anaesthetized, mechanically ventilated sensitized guinea pigs
Format: in vivo, guinea pig
Settings: Cavia porcellus
Method: Male Dunkin Hartley guinea pigs; body weight 200-250 g at sensitization and 350-500 g when performing the experiments. Ovalbumin (OVA) was used as allergen for active sensitization. Therefore, 20 μg OVA together with 20 mg Al(OH)3 suspended in 0.5 ml 0.9% NaCl-solution (=saline) were administered i.p. to each animal on 2 consecutive days. […] Controls received the drug-free methocel-solution 1 h before OVA-challenge as placebo (n=12). OVA-challenge and lung function measurements were performed in anaesthetized and mechanically ventilated animals. […] To enhance the SRS-A-mediated bronchoconstriction, the animals were pretreated with: indomethacin 10 mg/kg i.v. 20 min before OVA-challenge to block the cyclooxygenase pathway and to enhance the production of lipoxygenase-mediators, mainly leukotrienes. […] The time-effect curve for the delta-%-decrease of compliance and conductance was determined up to 12 min post challenge. Blood pressure and heart rate were monitored to control vitality. The area under the time-delta-%-decrease curves (AUC) was determined for each animal. On basis of the AUC-values, the inhibition of the SRS-A-induced decrease of compliance and conductance was calculated in reference to placebo. […] Measured and calculated ED50-values were compared by an unpaired t-test for statistical significant differences.

## O=C(Nc1c(Cl)cncc1Cl)c1ccc(OC(F)F)c(OCC2CC2)c1 [ROFLUMILAST, 3-cyclopropylmethoxy-4-difluoromethoxy-N-(3,5-dichloropyrid-4-yl)-benzamide]
read-out: ED50, inhibition of decrease of airway compliance
  ED50: 0.58 mg/kg and 1.45 µmol/kg
read-out: ED50, inhibition of decrease of airway conductance
  ED50: 0.69 mg/kg and 1.73 µmol/kg
